According to patent US20260001889A1, “COMPOSITIONS USEFUL FOR MODULATING SPLICING” (Skyhawk Therapeutics, Inc., priority 2022, published 2026):

test system: ATXN3-HiBiT protein; experiment: ATXN3 Total Protein Assay (Kelly-ATXN3-HiBiT luminescence); assay type: cell-based; conditions: Kelly-ATXN3-HiBiT cells, 48 h after addition of compound
Excerpt: Example 36: ATXN3 Total Protein Assay
To monitor ATXN3 protein levels by luminescence, a Kelly-ATXN3-HiBiT cell line with homozygous knock-in of HiBiT at the C-terminus of the endogenous ATXN3 gene was used (knock-in of the HiBiT-tag coding sequence SEQ ID NO. 14: 5′[…]3′ into exon 11 of ATXN3-position 1114 of ATXN3 RefSeq NM_004993.6). Manipulations of the Kelly-ATXN3-HiBiT cell line that result in downregulation of the ATXN3-HiBiT protein (through modulation of ATXN3-HiBiT pre-mRNA splicing) can be followed by monitoring the luminescence signal of the HiBiT tag using the Nano Glo HiBiT Lytic Detection System (Promega, #N3050). Kelly-ATXN3-HiBiT cells were maintained in RPMI 1640 w/Glutamax (Gibco, #61870010), 10% FBS (Sigma Aldrich, #F8687), 1% Penicillin/Streptomycin (Gibco, #15140-122) at 37° C., 5% CO2. To assess HiBiT-luminescence signal upon compound treatment, 2000 Kelly-ATXN3-HiBiT cells were seeded per well in 384 plate format. Compounds were added 24 h after seeding. ATXN3-HiBiT-luminescence signal was read out 48 h after addition of the compound using the Nano Glo HiBiT Lytic Detection System (Promega, #N3050) according to the manufacturer's instructions. To control for cell viability, an identically prepared sister plate was read out with the CellTiter-Glo® 2.0 Assay (Promega, #G9243) according to the manufacturer's instructions. Fold changes of ATXN3-HiBiT-luminescence and of CellTiter-Glo viability signals were calculated relative to a DMSO control condition.

Structure (SMILES) | EC50
[2H]C([2H])([2H])[C@H](N)Cc1oc2c(NCc3cccs3)cc(Cl)nc2c1C#C [Compound 270, 2-[(S)-2-amino(3,3,3-^2H3)propyl]-5-chloro-3-ethynyl-7-thenylamino-1-oxa-4-azaindene] | 0.01 to 100 nM
[2H]C([2H])([2H])[C@@H](N)Cc1oc2c(NCc3cccs3)cc(Cl)nc2c1C#C [Compound 271, 2-[(R)-2-amino(3,3,3-^2H3)propyl]-5-chloro-3-ethynyl-7-thenylamino-1-oxa-4-azaindene] | 101 to 500 nM
[2H]C([2H])([2H])OCC[C@H](N)Cc1oc2c(NCc3cccs3)cc(Cl)nc2c1Cl [Compound 273, 2-[(S)-2-amino-4-(^2H3)methoxybutyl]-3,5-dichloro-7-thenylamino-1-oxa-4-azaindene] | 101 to 500 nM
COCC[C@H](N)Cc1oc2c(NCc3cccs3)cc(Cl)nc2c1Cl [Compound 274, 2-[(S)-2-amino-4-methoxybutyl]-3,5-dichloro-7-thenylamino-1-oxa-4-azaindene] | 101 to 500 nM
Clc1cc(NCc2cccs2)c2occ(Br)c2n1 [Compound 279, (thenyl)(3-bromo-5-chloro-1-oxa-4-aza-7-indenyl)amine] | 101 to 500 nM
Clc1cc(NCc2ccncc2)c2occ(Br)c2n1 [Compound 280, [(4-pyridyl)methyl](3-bromo-5-chloro-1-oxa-4-aza-7-indenyl)amine] | 10000 to 40000 nM
C#Cc1c(C[C@@H](N)CC2(O)CC2)oc2c(NCc3cccs3)cc(Cl)nc12 [Compound 281, 1-[(2S)-2-amino-3-{5-chloro-3-ethynyl-7-[(thiophen-2-ylmethyl)amino]furo[3,2-b]pyridin-2-yl}propyl]cyclopropan-1-ol] | 501 to 5000 nM
[2H]C([2H])([2H])OC[C@]([2H])(N)Cc1oc2c(NCc3cccs3)cc(Cl)nc2c1Cl [Compound 282, 2-[(R)-2-amino-3-(^2H3)methoxy(2-2H)propyl]-3,5-dichloro-7-thenylamino-1-oxa-4-azaindene] | 0.01 to 100 nM
[2H][C@](N)(COC)Cc1oc2c(NCc3cccs3)cc(Cl)nc2c1Cl [Compound 283, 2-[(R)-2-amino-3-methoxy(2-^2H)propyl]-3,5-dichloro-7-thenylamino-1-oxa-4-azaindene] | 0.01 to 100 nM
[2H]C([2H])(c1oc2c(NCc3cccs3)cc(Cl)nc2c1Br)[C@H](C)N [Compound 292, 2-[(S)-2-amino(1,1-^2H2)propyl]-3-bromo-5-chloro-7-thenylamino-1-oxa-4-azaindene] | 0.01 to 100 nM
[2H]C([2H])(c1oc2c(NCc3cccs3)cc(Cl)nc2c1Cl)[C@H](C)N [Compound 293, 2-[(S)-2-amino(1,1-^2H2)propyl]-3,5-dichloro-7-thenylamino-1-oxa-4-azaindene] | 0.01 to 100 nM
[2H]C([2H])(c1oc2c(NCc3cccs3)cc(Cl)nc2c1C#C)[C@H](C)N [Compound 327, 2-[(S)-2-amino(1,1-^2H2)propyl]-5-chloro-3-ethynyl-7-thenylamino-1-oxa-4-azaindene] | 0.01 to 100 nM
COc1ccccc1CNc1cc(Cl)nc2c(Br)c(C[C@H](C)N)oc12 [Compound 337, 2-[(S)-2-aminopropyl]-3-bromo-5-chloro-7-{[(o-methoxyphenyl)methyl]amino}-1-oxa-4-azaindene] | 10000 to 40000 nM

Results, then the compound that gave them:

EC50 | Structure (SMILES)
0.01 to 100 nM | [2H]C([2H])([2H])OC[C@]([2H])(N)Cc1oc2c(NCc3cccs3)cc(Cl)nc2c1Br [Compound 284, 2-[(R)-2-amino-3-(^2H3)methoxy(2-2H)propyl]-3-bromo-5-chloro-7-thenylamino-1-oxa-4-azaindene]
0.01 to 100 nM | [2H]C([2H])([2H])OC[C@]([2H])(N)Cc1oc2c(NCc3cccs3)cc(Cl)nc2c1C#C [Compound 286, 2-[(R)-2-amino-3-(^2H3)methoxy(2-2H)propyl]-5-chloro-3-ethynyl-7-thenylamino-1-oxa-4-azaindene]
0.01 to 100 nM | [2H][C@](N)(COC)Cc1oc2c(NCc3cccs3)cc(Cl)nc2c1C#C [Compound 287, 2-[(R)-2-amino-3-methoxy(2-^2H)propyl]-5-chloro-3-ethynyl-7-thenylamino-1-oxa-4-azaindene]
0.01 to 100 nM | [2H]C([2H])(OC)[C@H](N)Cc1oc2c(NCc3cccs3)cc(Cl)nc2c1Br [Compound 296, 2-[(R)-2-amino-3-methoxy(3,3- ^2H2)propyl]-3-bromo-5-chloro-7-thenylamino-1-oxa-4-azaindene]
0.01 to 100 nM | [2H]C([2H])([2H])OC([2H])([2H])[C@H](N)Cc1oc2c(NCc3cccs3)cc(Cl)nc2c1Br [Compound 297, 2-[(R)-2-amino-3-(^2H3)methoxy(3,3- ^2H2)propyl]-3-bromo-5-chloro-7-thenylamino-1-oxa-4-azaindene]
0.01 to 100 nM | [2H]C([2H])(OC(F)F)[C@H](N)Cc1oc2c(NCc3cccs3)cc(Cl)nc2c1Br [Compound 298, 2-[(R)-2-amino-3-difluoromethoxy(3,3- ^2H2)propyl]-3-bromo-5-chloro-7-thenylamino-1-oxa-4-azaindene]
0.01 to 100 nM | [2H]C([2H])(F)[C@H](N)Cc1oc2c(NCc3cccs3)cc(Cl)nc2c1Br [Compound 299, 2-[(R)-2-amino-3-fluoro(3,3-^2H2)propyl]-3-bromo-5-chloro-7-thenylamino-1-oxa-4-azaindene]
0.01 to 100 nM | [2H]C([2H])(OC)[C@H](N)Cc1oc2c(NCc3cccs3)cc(Cl)nc2c1C#C [Compound 300, 2-[(R)-2-amino-3-methoxy(3,3- ^2H2)propyl]-5-chloro-3-ethynyl-7-thenylamino-1-oxa-4-azaindene]
0.01 to 100 nM | [2H]C([2H])([2H])OC([2H])([2H])[C@H](N)Cc1oc2c(NCc3cccs3)cc(Cl)nc2c1C#C [Compound 301, 2-[(R)-2-amino-3-(^2H3)methoxy(3,3- ^2H2)propyl]-5-chloro-3-ethynyl-7-thenylamino-1-oxa-4-azaindene]
0.01 to 100 nM | [2H]C([2H])(OC(F)F)[C@H](N)Cc1oc2c(NCc3cccs3)cc(Cl)nc2c1C#C [Compound 302, 2-[(R)-2-amino-3-difluoromethoxy(3,3- ^2H2)propyl]-5-chloro-3-ethynyl-7-thenylamino-1-oxa-4-azaindene]
0.01 to 100 nM | [2H]C([2H])(c1oc2c(NCc3cccs3)cc(Cl)nc2c1Br)[C@@H](N)CF [Compound 305, 2-[(R)-2-amino-3-fluoro(1,1-^2H2)propyl]-3-bromo-5-chloro-7-thenylamino-1-oxa-4-azaindene]
0.01 to 100 nM | [2H]C([2H])([2H])OCC[C@H](N)Cc1oc2c(NCc3cccs3)cc(Cl)nc2c1C#C [Compound 320, 2-[(S)-2-amino-4-(^2H3)methoxybutyl]-5-chloro-3-ethynyl-7-thenylamino-1-oxa-4-azaindene]
0.01 to 100 nM | [2H]C([2H])(c1oc2c(NCc3cccs3)cc(Cl)nc2c1C#C)[C@@H](N)COC [Compound 330, 2-[(R)-2-amino-3-methoxy(1,1- ^2H2)propyl]-5-chloro-3-ethynyl-7-thenylamino-1-oxa-4-azaindene]
0.01 to 100 nM | [2H]C([2H])(c1oc2c(NCc3cccs3)cc(Cl)nc2c1C#C)[C@@H](N)CF [Compound 335, 2-[(R)-2-amino-3-fluoro(1,1-^2H2)propyl]-5-chloro-3-ethynyl-7-thenylamino-1-oxa-4-azaindene]
0.01 to 100 nM | [2H]C([2H])(c1oc2c(NCc3cccs3)cc(Cl)nc2c1Cl)[C@@H](N)CF [Compound 336, 2-[(R)-2-amino-3-fluoro(1,1-^2H2)propyl]-3,5-dichloro-7-thenylamino-1-oxa-4-azaindene]
